Measurements published in publication PMC3465774, “Plant odorants interfere with detection of sex pheromone signals by male Heliothis virescens” (Frontiers in Cellular Neuroscience, 2012).

Target: T1, HR13 (Heliothis virescens, UniProt Q6A1K1)
T1 construct: stably expressed, tetracycline-induced, in Flp-In T-REx293/Galpha15 (HEK293) cells; no Orco mentioned
T1 sequence (Q6A1K1 1-425): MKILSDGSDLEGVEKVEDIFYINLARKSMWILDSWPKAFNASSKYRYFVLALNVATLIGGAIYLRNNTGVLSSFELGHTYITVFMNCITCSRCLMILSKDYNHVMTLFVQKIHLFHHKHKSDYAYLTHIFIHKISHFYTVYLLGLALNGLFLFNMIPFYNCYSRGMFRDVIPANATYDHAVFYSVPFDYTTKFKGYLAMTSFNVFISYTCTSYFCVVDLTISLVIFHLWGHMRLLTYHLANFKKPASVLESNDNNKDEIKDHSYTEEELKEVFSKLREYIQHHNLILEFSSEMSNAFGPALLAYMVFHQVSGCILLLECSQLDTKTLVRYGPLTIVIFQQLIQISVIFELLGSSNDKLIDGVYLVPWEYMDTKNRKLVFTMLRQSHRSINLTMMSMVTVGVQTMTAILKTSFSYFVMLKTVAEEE
Assay: fura-2 calcium imaging, mixture with Z11-16:Ald
Format: cell-based
Conditions: inhibitor of response to 1 nM Z11-16:Ald; no agonism at 100 nM; competitive or allosteric not resolved

SMILES: C=CC(C)(O)CCC=C(C)C (stereo not shown) [linalool]
- F/F0 of mixture (1, 10, 100 nM): linalool reduced the pheromone-induced calcium response of HR13 cells in a dose-dependent manner
